{
  "source": "patent US20240350592A1",
  "about": "“COMPOSITION AND METHODS OF TREATMENT USING […]-ENHANCED SUPPLEMENTATION” (Xygenyx Inc., priority 2023, published 2024)",
  "origin": "cited, not measured here",
  "key": {"[1]": {"settings": "compared to α-tocopherol taken as 1.0"}, "[2]": {"settings": "even when dietary intake occurs in equal portions"}, "F2-isoprostane": {"system": "F2-isoprostane", "settings": "doses of 1600-3200 IU/day"}, "[3]": {"system": "neurodegenerative diseases such as Alzheimer's Syndrome or dementia", "settings": "dietary supplementation, doses up to 400 IU/day; controlled trials"}, "coronary disease": {"system": "coronary disease", "settings": "dietary supplementation, doses up to 400 IU/day"}, "[4]": {"settings": "single penetration enhancer"}, "skin [5]": {"system": "skin", "settings": "topical, concentrations 0.5-5%"}, "skin [6]": {"system": "skin", "settings": "topical formulations; within four weeks of treatment"}, "markers of inflammation": {"system": "markers of inflammation", "settings": "individuals with metabolic syndrome"}, "[7]": {"settings": "in vivo"}, "[8]": {"settings": "in vivo", "remark": "listed apart in the source"}, "depression": {"system": "depression", "settings": "patients who did not respond to traditional antidepressant medications"}, "rheumatoid arthritis": {"system": "rheumatoid arthritis", "settings": "arthritic subjects"}, "[9]": {"system": "wide dynamic range neurons in the ventroposterolateral nucleus of the thalamus"}},
  "note": "Square brackets hold non-standard residues; d marks the D form. Peptide text beside a SMILES is read from it. Cit = NC(=O)NCCC[C@H](N)C(=O)O",
  "data": [
    {"compound": "Cc1c(O)cc2c(c1C)O[C@](C)(CCC[C@H](C)CCC[C@H](C)CCCC(C)C)CC2", "note": "[γ-tocopherol]", "values": [
      {"measurement": "relative biological activity", "setting": "[1]", "result": 0.1},
      {"measurement": "concentration in vivo relative to α-tocopherol", "setting": "[2]", "result": "roughly 10%"}
    ]},
    {"compound": "Cc1c(C)c2c(c(C)c1O)CC[C@@](C)(CCC[C@H](C)CCC[C@H](C)CCCC(C)C)O2", "note": "[α-tocopherol]", "values": [
      {"measurement": "blood plasma concentration of F2-isoprostane", "setting": "F2-isoprostane", "result": "significantly lower"},
      {"measurement": "reduction of the risk of developing neurodegenerative diseases", "setting": "[3]", "result": "≤ 24", "unit": "%"},
      {"measurement": "reduction of the risk of coronary disease", "setting": "coronary disease", "result": "up to 34%"}
    ]},
    {"compound": "C/C(=C\\CO)CCC[C@H](C)CCC[C@H](C)CCCC(C)C", "note": "[Phytol]", "values": [
      {"measurement": "solubility in water", "result": "nearly insoluble in water"}
    ]},
    {"compound": "CC12CCC(CC1)C(C)(C)O2", "note": "[eucalyptol, 1,8-epoxy-p-menthane]", "values": [
      {"measurement": "factor of increase of transdermal drug uptake", "setting": "[4]", "result": "more than 10"}
    ]},
    {"compound": "C=CCCCCCCCCC(=O)N[C@@H](Cc1ccccc1)C(=O)O", "note": "[UP, Undecylenoyl phenylalanine]", "values": [
      {"measurement": "time of treatment to skin lightening effects", "setting": "skin [5]", "result": "≥ 7", "unit": "days"}
    ]},
    {"compound": "CC[C@H](C)[C@H](NC(=O)[C@H](CC(=O)O)NC(=O)[C@@H](N)CCCCN)C(=O)N[C@@H](CCCNC(N)=O)C(N)=O", "note": "[tripeptide-10 citrulline, Tripeptide-10 citrulline] (H-KDI[Cit]-NH2)", "values": [
      {"measurement": "improvement of suppleness", "setting": "skin [6]", "result": "≤ 54", "unit": "%"}
    ]},
    {"compound": "Cc1cc(O)cc2c1O[C@](C)(CCC[C@H](C)CCC[C@H](C)CCCC(C)C)CC2", "note": "[δ-tocopherol]", "values": [
      {"measurement": "relative biological activity", "setting": "[1]", "result": 0.03},
      {"measurement": "markers of inflammation in the blood", "setting": "markers of inflammation", "result": "reduced"}
    ]},
    {"compound": "HGH: hormone comprising a peptide chain that is synthesized in the pituitary gland", "values": [
      {"measurement": "biological half-life", "setting": "[7]", "result": "10-20 minutes"}
    ]},
    {"compound": "CCNC(=O)CC[C@H](N)C(=O)O", "note": "[Theanine]", "values": [
      {"measurement": "dose generally considered safe and well-tolerated", "setting": "[8]", "result": "up to 400 mg per day"}
    ]},
    {"compound": "Cc1cc(O)c(C)c2c1O[C@](C)(CCC[C@H](C)CCC[C@H](C)CCCC(C)C)CC2", "note": "[β-tocopherol]", "values": [
      {"measurement": "relative biological activity", "setting": "[1]", "result": 0.5}
    ]},
    {"compound": "CC(C)[C@@H]1CC[C@@H](C)C[C@H]1O", "note": "[Menthol]", "values": [
      {"measurement": "factor of increase of transdermal drug uptake", "setting": "[4]", "result": "≥ 10"}
    ]},
    {"compound": "CN1c2c([nH]c(N)nc2=O)NCC1CNc1ccc(C(=O)N[C@@H](CCC(=O)O)C(=O)O)cc1", "note": "(stereo partly shown) [5-MTHF, 5-methyltetrahydrofolate]", "values": [
      {"measurement": "symptoms of depression", "setting": "depression", "result": "improved"}
    ]},
    {"compound": "C=C1CC/C=C(\\C)CC[C@@H]2[C@@H]1CC2(C)C", "note": "[β-caryophyllene]", "values": [
      {"measurement": "number of circulating and articular leukocytes", "setting": "rheumatoid arthritis", "result": "reduced"},
      {"measurement": "swelling of joints and lymph nodes", "setting": "rheumatoid arthritis", "result": "reduced"}
    ]},
    {"compound": "CCCCCc1cc(O)c2c(c1)OC(C)(C)C1CCC(C)=CC21", "note": "(stereo not shown) [THC, Δ-9-tetrahydrocannabinol]", "values": [
      {"measurement": "power in mediating pain compared to morphine", "setting": "[9]", "result": "ten times more powerful than morphine"}
    ]}
  ]
}
